Laboratory results reported in ChEMBL document CHEMBL3826977, “Discovery and Structural Characterization of G-quadruplex DNA in Human Acetyl-CoA Carboxylase Gene Promoters: Its Role in Transcriptional Regulation and as a Therapeutic Target for Human Disease” (J Med Chem, 2016).
Active and inactive are the calls of the source. The rule behind the calls is not given here.

Columns and labels:
HeLa [1] = assay: Effect on GAPDH gene expression in human HeLa cells at 5 to 20 uM after 24 hrs by qRT-PCR method; format: ADME, cell-based
HeLa [2] = assay: Binding affinity to human ACC1 promoter G-quadraduplex DNA transfected in human HeLa cells assessed as suppression of ACC1 gene expression after 24 hrs by qRT-PCR method; format: cell-based
[3] = Binding affinity to human ACC1 promoter2 G-quadraduplex DNA
[4] = Binding affinity to human ACC1 promoter1 G-quadraduplex DNA
Homo sapiens [5] = species on record: Homo sapiens; assay: Binding affinity to human ACC1 promoter2 G-quadraduplex DNA assessed as bathochromic red shift at 5 uM by UV-vis absorption spectroscopy
Homo sapiens [6] = species on record: Homo sapiens; assay: Binding affinity to human ACC1 promoter1 G-quadraduplex DNA assessed as inhibition of Taq-polymerase catalyzed primer extension preincubated for 1 hr followed by addition of Taq-polymerase measured after 30 mins by Taq-polymerase stop assay
Homo sapiens [7] = species on record: Homo sapiens; assay: Binding affinity to human ACC1 promoter2 G-quadraduplex DNA assessed as decrease in fluorescence emission intensity by fluorescence emission spectroscopy
Homo sapiens [8] = species on record: Homo sapiens; assay: Binding affinity to human ACC1 promoter2 G-quadraduplex DNA assessed as inhibition of Taq-polymerase catalyzed primer extension preincubated for 1 hr followed by addition of Taq-polymerase measured after 30 mins in presence of KCl by Taq-polymerase stop assay
HeLa [9] = assay: Binding affinity to human wild type ACC1 promoter2 G-quadraduplex DNA transfected in human HeLa cells assessed as suppression of ACC1 gene expression at 0.1 to 25 uM after 24 hrs by dual luciferase reporter assay relative to control; format: cell-based
HeLa [10] = assay: Binding affinity to human wild type ACC1 promoter1 G-quadraduplex DNA transfected in human HeLa cells assessed as suppression of ACC1 gene expression at 0.1 to 25 uM after 24 hrs by dual luciferase reporter assay relative to control; format: cell-based
Homo sapiens [11] = species on record: Homo sapiens; assay: Binding affinity to human ACC1 promoter2 G-quadraduplex DNA assessed as apparent isosbestic point at 5 uM by UV-vis absorption spectroscopy
Homo sapiens [12] = species on record: Homo sapiens; assay: Binding affinity to human ACC1 promoter2 G-quadraduplex DNA mutant assessed as inhibition of Taq-polymerase catalyzed primer extension preincubated for 1 hr followed by addition of Taq-polymerase measured after 30 mins in presence of KCl by Taq-polymerase stop assay
Homo sapiens [13] = species on record: Homo sapiens; assay: Binding affinity to human ACC1 promoter1 G-quadraduplex DNA assessed as decrease in fluorescence emission intensity by fluorescence emission spectroscopy
Homo sapiens [14] = species on record: Homo sapiens; assay: Binding affinity to human ACC1 promoter1 G-quadraduplex DNA mutant assessed as inhibition of Taq-polymerase catalyzed primer extension preincubated for 1 hr followed by addition of Taq-polymerase measured after 30 mins by Taq-polymerase stop assay
Homo sapiens [15] = species on record: Homo sapiens; assay: Binding affinity to human ACC1 promoter1 G-quadraduplex DNA at 5 uM by UV-vis absorption spectroscopy
HeLa [16] = assay: Binding affinity to human wild type ACC1 promoter1 G-quadraduplex DNA transfected in human HeLa cells assessed as suppression of ACC1 gene expression after 24 hrs by dual luciferase reporter assay; format: cell-based
Homo sapiens [17] = species on record: Homo sapiens; assay: Binding affinity to human ACC1 promoter2 G-quadraduplex DNA assessed as hyperchromic shift at 5 uM by UV-vis absorption spectroscopy
HeLa [18] = assay: Binding affinity to human wild type ACC1 promoter2 G-quadraduplex DNA transfected in human HeLa cells assessed as suppression of ACC1 gene expression after 24 hrs by dual luciferase reporter assay; format: cell-based

In the case of `c1cc2c(cc1-c1nc3cc(N4CCOCC4)ccc3[nH]1)c1cc(-c3nc4cc(N5CCOCC5)ccc4[nH]3)ccc1n2CCCCN1CCOCC1`, the Activity (HeLa [1]) is reported as “Non-toxic” and the inhibition (HeLa [2]) is reported as “Dose-dependent effect”.
For `C[n+]1ccc(-c2c3nc(c(-c4cc[n+](C)cc4)c4ccc([nH]4)c(-c4cc[n+](C)cc4)c4nc(c(-c5cc[n+](C)cc5)c5ccc2[nH]5)C=C4)C=C3)cc1`, the Kd [3] was 70 nM and the Kd [4] was 70 nM.
In the case of `C[n+]1ccc(-c2c3nc(c(-c4cc[n+](C)cc4)c4ccc([nH]4)c(-c4cc[n+](C)cc4)c4ccc([nH]4)c(-c4cc[n+](C)cc4)c4nc2C=C4)C=C3)cc1`, the Activity (Homo sapiens [5]) is reported as 18 nm, the inhibition (Homo sapiens [6]) is reported as “Dose-dependent effect” and the Activity (Homo sapiens [7]) is reported as “Active”. For the same molecule, the inhibition (Homo sapiens [8]) was “Dose-dependent effect”, the inhibition (HeLa [9]) was 84% and the inhibition (HeLa [10]) was 67%. For the same molecule, the Activity (Homo sapiens [11]) was 432 nm, the inhibition (Homo sapiens [12]) was “Active” and the Activity (Homo sapiens [13]) was “Active”. The inhibition (Homo sapiens [14]) was “inactive”, the Activity (Homo sapiens [15]) was “Active” and the inhibition (HeLa [16]) was “Dose-dependent effect”. The Activity (Homo sapiens [17]) was “Active” and the inhibition (HeLa [18]) was “Dose-dependent effect”.
